“And” between values parts separate entries of the source, which are not always exact repeats. Equal entries are not always repeated. ± gives the uncertainty stated by the source.
SMILES | viscosity (298.15 K, 100 kPa) | viscosity (298.15 K, 101 kPa) | viscosity (303.15 K, 100 kPa) | viscosity (313.15 K, 100 kPa) | viscosity (313.15 K, 101.33 kPa) | viscosity (318.15 K, 101 kPa) | viscosity (308.15 K, 101 kPa) | viscosity (308.15 K, 100 kPa) | viscosity (318.15 K, 100 kPa) | also measured
CCCCN | 0.468 ± 0.01 mPa·s | 0.48 ± 0.003 mPa·s and 0.474 ± 0.013 mPa·s | 0.458 ± 0.01 mPa·s | 0.398 ± 0.009 mPa·s | 0.3891 ± 0.0052 mPa·s and 0.3887 ± 0.0036 mPa·s and 0.397 ± 0.004 mPa·s | 0.3695 ± 0.0049 mPa·s | – | – | – | viscosity (293.15 K, 101 kPa): 0.55 ± 0.01 mPa·s and 0.523 ± 0.003 mPa·s; viscosity (308.15 K, 101.33 kPa): 0.412 ± 0.0038 mPa·s; viscosity (313.15 K, 101 kPa): 0.401 ± 0.002 mPa·s and 0.3922 ± 0.0051 mPa·s and 0.3891 ± 0.0052 mPa·s; viscosity (318.15 K, 101.33 kPa): 0.3676 ± 0.0035 mPa·s; viscosity (323.15 K, 100 kPa): 0.353 ± 0.008 mPa·s; viscosity (323.15 K, 101 kPa): 0.3491 ± 0.0046 mPa·s; viscosity (323.15 K, 101.33 kPa): 0.3486 ± 0.0033 mPa·s and 0.355 ± 0.004 mPa·s
CC[N+](=O)[O-] | – | – | – | – | 0.544 ± 0.005 mPa·s and 0.544 ± 0.011 mPa·s | 0.5009 ± 0.013 mPa·s | 0.5507 ± 0.015 mPa·s | – | – | viscosity (293.15 K, 101.33 kPa): 0.68 ± 0.007 mPa·s and 0.679 ± 0.006 mPa·s and 0.679 ± 0.014 mPa·s; viscosity (298.15 K, 101.33 kPa): 0.638 ± 0.006 mPa·s; viscosity (303.15 K, 101 kPa): 0.5737 ± 0.015 mPa·s; viscosity (303.15 K, 101.33 kPa): 0.605 ± 0.005 mPa·s and 0.605 ± 0.013 mPa·s
OC1CCCCCC1 | 53.6 ± 3 mPa·s | – | 43.34 ± 3.1 mPa·s | 30.84 ± 3 mPa·s | – | – | – | 35.61 ± 3.1 mPa·s | 26.6 ± 3 mPa·s | viscosity (293.15 K, 100 kPa): 68.77 ± 3.1 mPa·s
CCCCC(CC)COP(=O)(OCC(CC)CCCC)OCC(CC)CCCC (configuration not stated) | – | – | – | – | – | – | 8.206 ± 0.057 mPa·s | – | – | –
CCCC(=O)OCC(COC(=O)CCC)OC(=O)CCC | – | – | – | – | – | – | – | – | – | viscosity (298 K, 101.33 kPa): 8.68 ± 0.12 mPa·s; viscosity (303 K, 101.33 kPa): 7.38 ± 0.1 mPa·s; viscosity (308 K, 101.33 kPa): 6.32 ± 0.09 mPa·s; viscosity (313 K, 101.33 kPa): 5.49 ± 0.08 mPa·s
CCn1ccnc1 | 1.93 ± 0.1 mPa·s | 1.933 ± 0.098 mPa·s | – | – | – | 1.343 ± 0.068 mPa·s | 1.594 ± 0.081 mPa·s | 1.59 ± 0.08 mPa·s | 1.34 ± 0.07 mPa·s | –

Source: the CheMixHub viscosity set
